Results from US5556744A, “Methods and compositions for diagnosing and treating certain HIV infected patients” (The Trustees of the University of Pennsylvania, priority 1994, dated 1996).

Test system: maternal HIV+ sera (antibodies)
Test: RIA / ELISA binding of maternal HIV+ sera to gp120 and gp41 peptides (Example 3)
Parameters: species or system human
Procedure: Radioimmunoassay (RIA) and enzyme-linked immunosorbent assay (ELISA) were performed by standard methodologies [E. Engvall, Meth. Immunol., 70:419-439 (1980); S. K. Pierce et al, J. Exp. Med., 144:1254-1262 (1976)]. Peptides were dissolved in 0.05M carbonate-bicarbonate buffer (pH 9.6) at a concentration of 10 μg/ml. Fifty μl (500 ng) of the peptides were immobilized in 96 well polyvinylchloride plates (Dynatech Laboratories, Inc.) overnight at 4° C. Plates were washed and non-specific sites were blocked with PBS containing 1% BSA overnight at 4° C.
Dilutions of HIV positive maternal sera were made in blocking buffer at dilutions of 1:50 and 1:500 and incubated in peptide coated plates overnight at 4° C. Plates were washed with PBS and incubated with 75,000 cpm of ^125 I-labelled goat anti-human IgG. The antibody was iodinated by a chloramine T method [W. V. Williams et al, Proc. Natl. Acad. Sci. USA, 85:6488-6492 (1988)]. Plates were washed, dried and counted in a gamma counter to measure specific binding. Normal human serum (i.e., HIV seronegative) was used as a control.
Alternatively, ELISA assays were performed in polystyrene plates (Dynatech Laboratories, Inc) in which 0.05% Tween 20 (Sigma Chemical Co.) was included in the washing, blocking and dilution buffers. The secondary antibody used was goat […] Ig conjugated to horseradish peroxidase (HRP) (Sigma Chemical Co). The substrate used for color development was 3,3',5,5' tetramethyl-benzidine dihydrochloride (TMB) (Sigma Chemical Co). Absorbance of samples was measured in a Dynatech MR5000 (Dynatech Laboratories, Inc.) plate reader and expressed as an optical density at wavelength of 450 nm (OD450).
The following key is used for the designation of specific binding of the maternal sera samples to the peptides: The minus sign, -, is equivalent to the specific OD450 or cpm of sera sample binding to peptide divided by the specific OD450 or cpm of NHS sample binding to peptide, which value is less than 2. The plus sign, +, is equivalent to the specific OD450 or cpm of sera sample binding to peptide divided by the specific OD450 or cpm of NHS sample binding to peptide, which value is between 2 to 3.
Specific binding is defined as the difference between the OD450 or cpm of sera to wells with peptide and the OD450 or cpm of sera to wells without peptide.
Comparisons of number of peptides which bound maternal serum samples were made between the transmission group and the nontransmission group. The data was analyzed using the unpaired student's test. For the determination of differences in the binding of specific peptides between transmission and non-transmission groups, the Spearman's rank-order correlation test was performed.

[1] = Serum No. 1, Non-Transmission Group
[2] = Serum No. 2, Non-Transmission Group
[3] = Serum No. 3, Non-Transmission Group
[4] = Serum No. 4, Transmission Group
[5] = Serum No. 5, Transmission Group
[6] = Serum No. 6, Non-Transmission Group
[7] = Serum No. 7, Non-Transmission Group
[8] = Serum No. 8, Non-Transmission Group
[9] = Serum No. 9, Non-Transmission Group
[10] = Serum No. 10, Transmission Group
[11] = Serum No. 11, Non-Transmission Group
[12] = Serum No. 12, Non-Transmission Group
[13] = Serum No. 13, Transmission Group
[14] = Serum No. 14, Transmission Group
[15] = Serum No. 15, Transmission Group
[16] = Serum No. 16, Non-Transmission Group
[17] = Serum No. 17, Non-Transmission Group
[18] = Serum No. 18, Non-Transmission Group
[19] = Serum No. 19, Transmission Group
[20] = Serum No. 20, Non-Transmission Group

Sequence	Binding of maternal HIV+ serum to peptide (sera/NHS ratio) [1]	Binding of maternal HIV+ serum to peptide (sera/NHS ratio) [2]	Binding of maternal HIV+ serum to peptide (sera/NHS ratio) [3]	Binding of maternal HIV+ serum to peptide (sera/NHS ratio) [4]	Binding of maternal HIV+ serum to peptide (sera/NHS ratio) [5]	Binding of maternal HIV+ serum to peptide (sera/NHS ratio) [6]	Binding of maternal HIV+ serum to peptide (sera/NHS ratio) [7]	Binding of maternal HIV+ serum to peptide (sera/NHS ratio) [8]	Binding of maternal HIV+ serum to peptide (sera/NHS ratio) [9]	Binding of maternal HIV+ serum to peptide (sera/NHS ratio) [10]	Binding of maternal HIV+ serum to peptide (sera/NHS ratio) [11]	Binding of maternal HIV+ serum to peptide (sera/NHS ratio) [12]	Binding of maternal HIV+ serum to peptide (sera/NHS ratio) [13]	Binding of maternal HIV+ serum to peptide (sera/NHS ratio) [14]	Binding of maternal HIV+ serum to peptide (sera/NHS ratio) [15]	Binding of maternal HIV+ serum to peptide (sera/NHS ratio) [16]	Binding of maternal HIV+ serum to peptide (sera/NHS ratio) [17]	Binding of maternal HIV+ serum to peptide (sera/NHS ratio) [18]	Binding of maternal HIV+ serum to peptide (sera/NHS ratio) [19]	Binding of maternal HIV+ serum to peptide (sera/NHS ratio) [20]
GYSPLSFQTHPIPR [Peptide 128]	- (specific OD450 or cpm of sera sample binding to peptide divided by the specific OD450 or cpm of NHS sample binding to peptide, which value is less than 2)	- (specific OD450 or cpm of sera sample binding to peptide divided by the specific OD450 or cpm of NHS sample binding to peptide, which value is less than 2)	- (specific OD450 or cpm of sera sample binding to peptide divided by the specific OD450 or cpm of NHS sample binding to peptide, which value is less than 2)	- (specific OD450 or cpm of sera sample binding to peptide divided by the specific OD450 or cpm of NHS sample binding to peptide, which value is less than 2)	- (specific OD450 or cpm of sera sample binding to peptide divided by the specific OD450 or cpm of NHS sample binding to peptide, which value is less than 2)	- (specific OD450 or cpm of sera sample binding to peptide divided by the specific OD450 or cpm of NHS sample binding to peptide, which value is less than 2)	- (specific OD450 or cpm of sera sample binding to peptide divided by the specific OD450 or cpm of NHS sample binding to peptide, which value is less than 2)	- (specific OD450 or cpm of sera sample binding to peptide divided by the specific OD450 or cpm of NHS sample binding to peptide, which value is less than 2)	- (specific OD450 or cpm of sera sample binding to peptide divided by the specific OD450 or cpm of NHS sample binding to peptide, which value is less than 2)	- (specific OD450 or cpm of sera sample binding to peptide divided by the specific OD450 or cpm of NHS sample binding to peptide, which value is less than 2)	- (specific OD450 or cpm of sera sample binding to peptide divided by the specific OD450 or cpm of NHS sample binding to peptide, which value is less than 2)	- (specific OD450 or cpm of sera sample binding to peptide divided by the specific OD450 or cpm of NHS sample binding to peptide, which value is less than 2)	- (specific OD450 or cpm of sera sample binding to peptide divided by the specific OD450 or cpm of NHS sample binding to peptide, which value is less than 2)	- (specific OD450 or cpm of sera sample binding to peptide divided by the specific OD450 or cpm of NHS sample binding to peptide, which value is less than 2)	- (specific OD450 or cpm of sera sample binding to peptide divided by the specific OD450 or cpm of NHS sample binding to peptide, which value is less than 2)	- (specific OD450 or cpm of sera sample binding to peptide divided by the specific OD450 or cpm of NHS sample binding to peptide, which value is less than 2)	- (specific OD450 or cpm of sera sample binding to peptide divided by the specific OD450 or cpm of NHS sample binding to peptide, which value is less than 2)	- (specific OD450 or cpm of sera sample binding to peptide divided by the specific OD450 or cpm of NHS sample binding to peptide, which value is less than 2)	- (specific OD450 or cpm of sera sample binding to peptide divided by the specific OD450 or cpm of NHS sample binding to peptide, which value is less than 2)	- (specific OD450 or cpm of sera sample binding to peptide divided by the specific OD450 or cpm of NHS sample binding to peptide, which value is less than 2)
KLICTTQVPWNASWS [Peptide 123]	+ (which value is between 2 to 3)	- (specific OD450 or cpm of sera sample binding to peptide divided by the specific OD450 or cpm of NHS sample binding to peptide, which value is less than 2)	- (specific OD450 or cpm of sera sample binding to peptide divided by the specific OD450 or cpm of NHS sample binding to peptide, which value is less than 2)	- (specific OD450 or cpm of sera sample binding to peptide divided by the specific OD450 or cpm of NHS sample binding to peptide, which value is less than 2)	- (specific OD450 or cpm of sera sample binding to peptide divided by the specific OD450 or cpm of NHS sample binding to peptide, which value is less than 2)	- (specific OD450 or cpm of sera sample binding to peptide divided by the specific OD450 or cpm of NHS sample binding to peptide, which value is less than 2)	- (specific OD450 or cpm of sera sample binding to peptide divided by the specific OD450 or cpm of NHS sample binding to peptide, which value is less than 2)	- (specific OD450 or cpm of sera sample binding to peptide divided by the specific OD450 or cpm of NHS sample binding to peptide, which value is less than 2)	- (specific OD450 or cpm of sera sample binding to peptide divided by the specific OD450 or cpm of NHS sample binding to peptide, which value is less than 2)	- (specific OD450 or cpm of sera sample binding to peptide divided by the specific OD450 or cpm of NHS sample binding to peptide, which value is less than 2)	- (specific OD450 or cpm of sera sample binding to peptide divided by the specific OD450 or cpm of NHS sample binding to peptide, which value is less than 2)	- (specific OD450 or cpm of sera sample binding to peptide divided by the specific OD450 or cpm of NHS sample binding to peptide, which value is less than 2)	- (specific OD450 or cpm of sera sample binding to peptide divided by the specific OD450 or cpm of NHS sample binding to peptide, which value is less than 2)	- (specific OD450 or cpm of sera sample binding to peptide divided by the specific OD450 or cpm of NHS sample binding to peptide, which value is less than 2)	- (specific OD450 or cpm of sera sample binding to peptide divided by the specific OD450 or cpm of NHS sample binding to peptide, which value is less than 2)	- (specific OD450 or cpm of sera sample binding to peptide divided by the specific OD450 or cpm of NHS sample binding to peptide, which value is less than 2)	- (specific OD450 or cpm of sera sample binding to peptide divided by the specific OD450 or cpm of NHS sample binding to peptide, which value is less than 2)	- (specific OD450 or cpm of sera sample binding to peptide divided by the specific OD450 or cpm of NHS sample binding to peptide, which value is less than 2)	- (specific OD450 or cpm of sera sample binding to peptide divided by the specific OD450 or cpm of NHS sample binding to peptide, which value is less than 2)	- (specific OD450 or cpm of sera sample binding to peptide divided by the specific OD450 or cpm of NHS sample binding to peptide, which value is less than 2)
